Data on eleven compounds can be found in paper PMC5573420, “Correlation between human ether‐a‐go‐go‐related gene channel inhibition and action potential prolongation” (British Journal of Pharmacology, 2017).

For orientation: IC50 means the concentration that gives 50% inhibition. The low end stands for greater potency in that assay, the high end for weaker potency in that assay. For orientation: Ki means the dissociation constant of the complex between target and ligand, obtained from inhibition or displacement.

Molecules are shown by their SMILES. Where two headings read alike, the source gives them in different places. Some results are limits rather than exact numbers.

For one data set, the system named is hiPSC-CMs. Nature of the data set: Optical measurement of action potential duration (APD90) in hiPSC-CMs using voltage-sensitive dye di-4-ANEPPS. As to conditions: for Maximal AP prolongation: maximal level over concentrations tested. The protocol:
The plates were then incubated at 37°C, 5% CO2. Forty‐eight hours post‐thaw, 100% of the plating medium was replaced with CDI Maintenance Medium (CDI, CMC‐100‐120‐001), and further, 100% media changes were performed every 2 days after that.
Afterwards, the medium containing VSD was replaced by fresh serum‐free medium, and the cells were returned to the incubator. The multi‐well plate was placed in an environmentally controlled stage incubator (37°C, 5% CO2, water‐saturated air atmosphere) (Okolab Inc, Burlingame, CA, USA) of the CelIOPTIQ platform (Clyde Biosciences Ltd, Glasgow, Scotland). The di‐4‐ANEPPS fluorescence signal was recorded from a 0.2 × 0.2 mm area using a 40× (NA 0.6) objective lens. Excitation wavelength was 470 ± 10 nm using a light‐emitting diode (LED), and emitted light was collected by two photomultipliers (PMTs) at 510–560 and 590–650 nm respectively. LED, PMT, associated power supplies and amplifiers were supplied by Cairn Research Ltd (Kent, UK). […] A 20 s recording was then taken 30 min after exposure to the drug or vehicle with only one concentration applied per well. The records were subsequently analysed offline using proprietary software (CellOPTIQ). The procedure was repeated from four to five times, and parallel matched control (vehicle) measurements were taken on cardiomyocytes with equivalent concentrations of vehicle (DMSO). AP parameters were measured, including APD at 50, 75 and 90% repolarization (APD50, APD75 and APD90 respectively). Data are given as % change from control for the treated groups (vehicle, control and drug). This allowed a single comparison to be made at each concentration, and every experiment was performed with its own set of controls (vehicle). No data were used more than once.

Another data set has as its target hERG channels (Homo sapiens, UniProt Q12809). Nature of the data set: hERG current inhibition, automated planar patch clamp in HEK293 cells stably expressing hERG. On the procedure: Currents were low‐pass filtered at 10 kHz using the internal Bessel filter and sampled at 25 kHz. The extracellular solution for hERG current recording contained 140 mM NaCl, 4 mM KCl, 2 mM CaCl2, 1 mM MgCl2,5 mM D‐glucose and 10 mM HEPES (pH 7.4) (Sigma‐Aldrich). The intracellular solution for hERG current recording contained 50 mM KCl, 10 mM NaCl, 60 mM KF, 20 mM EGTA and 10 mM HEPES (pH 7.2). The extracellular solution for measuring sodium currents in HEK cells stably expressing the human clone of Nav1.5 (GenBank M77235) contained 4 mM KCl, 20 mM NaCl, 1.8 mM CaCl2, 0.75 mM MgCl2, 5 mM HEPES, 120 mM choline chloride and pH 7.4 using NaOH. The intracellular solution for sodium current recording contained 120 mM CsF, 20 mM CsCl, 5 mM EGTA, 5 mM HEPES and pH 7.4 using CsOH. All chemicals were obtained from Sigma‐Aldrich Chemie GmbH (Taufkirchen, Germany). The compound solutions were applied by means of the automated NPC‐16 Patchliner planar patch‐clamp platform.
Data are presented as mean ± SEM for at least five cells from two different batches or for three independent measurements with HEK293 cells.
The concentration–inhibition relationships were analysed by plotting the normalized values of peak tail current versus peak tail steady current in the presence of the respective cumulatively applied compound concentrations (Figure 4B, C). Data points were fitted using Hill equation.

Another data set deals with hERG potassium channels. To be noted: cited from earlier work.
The mark [1] stands for this setting: read-out: Ki binding studies, radioligand binding, ref Shagufta et al 2009.
Where [2] appears, read: Homo sapiens, 0.5 h, read-out: Changes in APD90 in hiPSC-CMs.
Setting [3] is: Homo sapiens, read-out: D150 (concentration that prolongs the AP by 50%), APD90 in hiPSC-CMs.
The mark [4] stands for this setting: Homo sapiens, 0.5 h, read-out: Changes in APD90 in hiPSC-CMs, 1 nM, 30 min exposure.
Setting [5] is: Homo sapiens, 0.5 h, read-out: Changes in APD90 in hiPSC-CMs, 10 nM, 30 min exposure.
The mark [6] stands for this setting: Homo sapiens, 0.5 h, read-out: Changes in APD90 in hiPSC-CMs, 30 nM, 30 min exposure.
Setting [7] is: Homo sapiens, 0.5 h, read-out: Changes in APD90 in hiPSC-CMs, 100 nM, 30 min exposure.
[8] abbreviates: Homo sapiens, 0.5 h, read-out: Changes in APD90 in hiPSC-CMs, 300 nM, 30 min exposure.
Where [9] appears, read: Homo sapiens, read-out: D150 (concentration that prolongs the AP by 50%).

Sequence of hERG channels (Q12809 whole entry): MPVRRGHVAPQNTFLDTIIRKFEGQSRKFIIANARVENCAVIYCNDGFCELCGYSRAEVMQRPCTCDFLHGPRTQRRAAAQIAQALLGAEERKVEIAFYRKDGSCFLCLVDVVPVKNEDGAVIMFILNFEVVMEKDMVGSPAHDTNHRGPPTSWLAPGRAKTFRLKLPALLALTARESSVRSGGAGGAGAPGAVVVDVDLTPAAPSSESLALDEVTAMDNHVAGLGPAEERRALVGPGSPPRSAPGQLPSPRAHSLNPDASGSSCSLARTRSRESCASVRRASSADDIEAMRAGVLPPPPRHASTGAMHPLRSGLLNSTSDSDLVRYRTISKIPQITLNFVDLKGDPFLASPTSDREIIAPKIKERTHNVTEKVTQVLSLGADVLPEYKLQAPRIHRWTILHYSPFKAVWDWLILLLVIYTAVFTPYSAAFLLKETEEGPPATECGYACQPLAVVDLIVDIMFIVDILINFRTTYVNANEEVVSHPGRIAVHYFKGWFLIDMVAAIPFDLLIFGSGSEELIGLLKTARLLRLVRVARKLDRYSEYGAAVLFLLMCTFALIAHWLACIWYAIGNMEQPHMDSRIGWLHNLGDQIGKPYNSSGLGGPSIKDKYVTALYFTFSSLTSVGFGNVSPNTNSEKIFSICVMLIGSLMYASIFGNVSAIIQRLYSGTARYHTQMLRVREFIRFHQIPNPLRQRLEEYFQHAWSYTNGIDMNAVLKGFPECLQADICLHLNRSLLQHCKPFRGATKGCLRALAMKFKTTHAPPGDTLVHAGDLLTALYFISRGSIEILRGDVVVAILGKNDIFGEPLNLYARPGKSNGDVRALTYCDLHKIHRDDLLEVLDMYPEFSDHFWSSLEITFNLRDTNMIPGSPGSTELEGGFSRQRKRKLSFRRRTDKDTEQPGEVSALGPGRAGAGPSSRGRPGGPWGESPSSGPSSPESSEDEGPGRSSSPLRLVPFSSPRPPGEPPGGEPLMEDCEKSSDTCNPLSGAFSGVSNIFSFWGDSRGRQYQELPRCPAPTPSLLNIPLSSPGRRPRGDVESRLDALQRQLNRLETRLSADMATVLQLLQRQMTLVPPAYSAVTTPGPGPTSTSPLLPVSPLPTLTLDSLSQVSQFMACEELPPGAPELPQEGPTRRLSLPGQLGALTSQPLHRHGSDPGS

Regarding `Cc1ccc(CCN(C)CCOc2ccc(C)cc2)cc1` [Dofe33], in the data set with hiPSC-CMs, the “Effect on APD90 / AP prolongation (in words)” value is “negligible effect on APD90 prolongation until 100 nM”. Also, the “Maximal AP prolongation” value in the data set with hiPSC-CMs (hiPSC-CMs) is on record as 250%.
With `CN(CCOc1ccccc1)CCc1ccccc1` [Dofe30], the IC50 against hERG channels came to 297 ± 77.5 nM. Moreover, in the data set on hERG potassium channels (setting [1]), the Ki is over 10000 nM. Moreover, in the data set on hiPSC-CMs (setting [2]), the activity at 0.01 µM was 99%, the activity at 0.03 µM came out at 92%, the activity at 0.1 µM came out at 105% and the activity at 0.3 µM amounted to 190%. Further, the activity at 1 µM in the data set with hiPSC-CMs (setting [2]) stood at 140%. The EC (50% APD prolongation) with hiPSC-CMs (setting [3]) came out at 0.213 µM. Besides, the “Incidence of EADs” value with hiPSC-CMs (hiPSC-CMs) was “without (if any) incidence of EADs”.
`CN(CCOc1ccc([N+](=O)[O-])cc1)CCc1ccc([N+](=O)[O-])cc1` [Dofe35]: the IC50 at hERG channels was 22.1 nM. Further, the Ki in the data set with hERG potassium channels was 5.7 ± 3 nM. Besides, the activity at 0.001 µM with hiPSC-CMs (setting [4]) is 102%. In addition, in the data set on hiPSC-CMs (setting [5]), the activity at 0.01 µM was 159%. Moreover, in the data set with hiPSC-CMs (setting [6]), the activity at 0.03 µM came out at 770%. In addition, the activity at 0.1 µM in the data set on hiPSC-CMs (setting [7]) amounted to 746%. Moreover, the activity at 0.3 µM in the data set on hiPSC-CMs (setting [8]) came out at 650%. Moreover, the EC (50% APD prolongation) in the data set on hiPSC-CMs (setting [9]) is 0.0083 µM. Besides, in the data set on hiPSC-CMs (hiPSC-CMs), the “Incidence of EADs” value was “incidence of EADs at the higher concentrations” and the “Maximal AP prolongation” value is given as at most 1000%.
On to `CN(CCOc1ccc(NS(C)(=O)=O)cc1)CCc1ccc(NS(C)(=O)=O)cc1` [Dofetilide, reference compound], for which the Ki in the data set on hERG potassium channels was 4.1 ± 0.9 nM. The “Spontaneous rate of myocyte contraction” value in the data set on hiPSC-CMs (100 nM, hiPSC-CMs) is recorded as “dramatically increased”. Besides, the activity at 0.0001 µM in the data set with hiPSC-CMs (Homo sapiens, 0.5 h, read-out: Changes in APD90 in hiPSC-CMs, 0.1 nM, 30 min exposure) is 191%. Moreover, the activity at 0.001 µM with hiPSC-CMs (setting [4]) stood at 246%. Further, the activity at 0.01 µM with hiPSC-CMs (setting [5]) stood at 641%. Moreover, in the data set with hiPSC-CMs (setting [6]), the activity at 0.03 µM turned out to be 827%. The EC (50% APD prolongation) in the data set on hiPSC-CMs (setting [3]) was found to be 4e-05 µM. Besides, the “Incidence of EADs” value in the data set with hiPSC-CMs (hiPSC-CMs) is “incidence of EADs at concentrations of 10, 30 and 100 nM”.
Turning to `CN(CCOc1ccc(Cl)cc1)CCc1ccc(Cl)cc1` [Dofe31], the “Incidence of EADs” value in the data set on hiPSC-CMs is recorded as “without (if any) incidence of EADs”. In the data set with hiPSC-CMs (setting [2]), the activity at 0.001 µM was 127%, the activity at 0.01 µM is 100%, the activity at 0.03 µM worked out at 103% and the activity at 0.1 µM came out at 108%. Further, in the data set on hiPSC-CMs (setting [2]), the activity at 0.3 µM was 214% and the activity at 1 µM is 296%. Further, the EC (50% APD prolongation) with hiPSC-CMs (setting [3]) stood at 0.151 µM.
In the case of `Cc1ccc(OCCN(C)CCc2ccccc2)cc1` [Dofe43], in the data set with hiPSC-CMs (setting [2]), the activity at 0.01 µM was determined as 167%, the activity at 0.1 µM was 156%, the activity at 0.3 µM stood at 175% and the activity at 1 µM is 390%. Also, the EC (50% APD prolongation) in the data set on hiPSC-CMs (setting [3]) is 0.0993 µM. In the data set on hiPSC-CMs (hiPSC-CMs), the “Incidence of EADs” value is “without (if any) incidence of EADs”.
On to `CN(CCOc1ccc(Cl)cc1)CCc1ccccc1` [Dofe41], for which, in the data set with hiPSC-CMs (setting [2]), the activity at 0.01 µM was found to be 140%, the activity at 0.1 µM worked out at 144%, the activity at 0.3 µM was determined as 162% and the activity at 1 µM was 262%. Further, the EC (50% APD prolongation) in the data set with hiPSC-CMs (setting [3]) was 0.157 µM. For the same compound, the “Incidence of EADs” value in the data set with hiPSC-CMs (hiPSC-CMs) is “without (if any) incidence of EADs”.
With `CN(CCCOc1ccc([N+](=O)[O-])cc1)Cc1ccc([N+](=O)[O-])cc1` [Dofe78], it took 28.2 ± 4.9 nM to reach half-maximal inhibition at hERG channels (IC50). Further, in the data set with hERG potassium channels (setting [1]), the Ki is 5.1 ± 1.9 nM. In the data set with hiPSC-CMs (setting [2]), the activity at 0.01 µM was found to be 116%, the activity at 0.1 µM turned out to be 420%, the activity at 0.3 µM is 300% and the activity at 1 µM came out at 417%. In addition, in the data set with hiPSC-CMs (setting [3]), the EC (50% APD prolongation) amounted to 0.02 µM. In addition, in the data set on hiPSC-CMs (hiPSC-CMs), the “Incidence of EADs” value was “incidence of EADs at the higher concentrations” and the “Maximal AP prolongation” value is recorded as at most 1000%.
`CN(CCCCOc1ccc([N+](=O)[O-])cc1)CCc1ccc([N+](=O)[O-])cc1` [Dofe81] gave an IC50 against hERG channels of 10.7 nM. The Ki in the data set on hERG potassium channels is 1.8 ± 1.6 nM. Further, the activity at 0.001 µM in the data set on hiPSC-CMs (setting [4]) is 117%. Besides, the activity at 0.01 µM in the data set with hiPSC-CMs (setting [5]) is 389%. Besides, the activity at 0.03 µM in the data set with hiPSC-CMs (setting [6]) was 858%. Further, in the data set on hiPSC-CMs (setting [9]), the EC (50% APD prolongation) is 0.0025 µM. Further, in the data set on hiPSC-CMs (hiPSC-CMs), the “Incidence of EADs” value is on record as “incidence of EADs at the higher concentrations” and the “Maximal AP prolongation” value is at most 1000%.
As for `CCN(CCOc1ccc([N+](=O)[O-])cc1)CCc1ccc([N+](=O)[O-])cc1` [Dofe54], half-maximal inhibition against hERG channels (IC50) was put at 2.6 ± 0.4 nM. Besides, in the data set with hERG potassium channels (setting [1]), the Ki is 1.2 ± 0.6 nM. Besides, the activity at 0.001 µM in the data set with hiPSC-CMs (setting [4]) was 107%. The activity at 0.03 µM with hiPSC-CMs (setting [6]) amounted to 702%. Besides, the activity at 0.1 µM with hiPSC-CMs (setting [7]) came to 710%. For the same compound, the EC (50% APD prolongation) in the data set on hiPSC-CMs (setting [9]) was 0.0043 µM. Also, in the data set on hiPSC-CMs (hiPSC-CMs), the “Incidence of EADs” value is “incidence of EADs at the higher concentrations” and the “Maximal AP prolongation” value is at most 1000%.
For `O=[N+]([O-])c1ccc(CCN(CCF)CCOc2ccc([N+](=O)[O-])cc2)cc1` [Dofe60], in the data set on hiPSC-CMs (setting [4]), the activity at 0.001 µM worked out at 95%. Also, the activity at 0.01 µM in the data set with hiPSC-CMs (setting [5]) came to 112%. In addition, in the data set with hiPSC-CMs (setting [6]), the activity at 0.03 µM was 185%. For the same compound, the activity at 0.1 µM in the data set with hiPSC-CMs (setting [7]) amounted to 771%. Also, in the data set with hiPSC-CMs (setting [8]), the activity at 0.3 µM is 413%. The EC (50% APD prolongation) with hiPSC-CMs (setting [9]) was 0.0213 µM. Besides, in the data set on hiPSC-CMs (hiPSC-CMs), the “Incidence of EADs” value is given as “incidence of EADs at the higher concentrations” and the “Maximal AP prolongation” value was at most 1000%.
